Assay results: ChEMBL document CHEMBL1151822, “Saldedines A and B, dibromo proaporphine alkaloids from a Madagascan tunicate” (J Nat Prod, 2009)

Experiment: Toxicity in Artemia salina
Assay type: organism-based
Details: in vivo, read-out: LD50 (the source's name)

Row | Compound | LC50 [µM]
1 | COc1cc2c3c(c1O)C1(C=C(Br)C(=O)C(Br)=C1)C[C@@H]3N(C)CC2 [SALDEDINE A] | 4.4
2 | COc1cc2c3c(c1O)C1(C=C(Br)C(O)C(Br)=C1)C[C@@H]3N(C)CC2 (some centres not stated) [SALDEDINE B] | 10.9
